We go through one molecule from patent US11078194B2, “Salt form and crystal form serving as FGFR and VEGFR inhibitor compounds, and preparation method therefor” (HARBIN ZHENBAO PHARMACEUTICAL CO., LTD., priority 2017, dated 2021).

Each structure is given as a SMILES string.

The subject of assay [1] is FGFR1/2 Highly Expressed Patient-derived Liver Tumor Transplantation Model. Kind of assay: Tumor growth inhibition (TGI) analysis. In kind it is in vivo, mice. To be noted: 5 mg/kg, BID. On the procedure: The evolutionary growth potential of tumors was evaluated by the relationship between tumor volume and time. The long axis (L) and short axis (W) of the subcutaneous tumor were measured twice a week by the caliper and the tumor volume (TV) was calculated by the formula ((L×W^2)/2). TGI was calculated from the difference between the median tumor volume in the solvent group mice and the median tumor volume in the drug group mice, expressed as a percentage counting for the median tumor volume in the solvent control group, calculated by the following formula: % TGI=((median tumor volume (control)−median tumor volume (dosing group))/median tumor volume (control group))×100
The original statistical analysis was done by repeating the analysis of variance, followed by post-hoc Scheffe's test method for multiple comparisons, with solvent alone (0.5% methylcellulose+0.2% Tween in water) as negative control.

The target of another assay is T1, FGFR1 (Homo sapiens, UniProt P11362).
T1 construct: purchased Invitrogen PV4105
Kind of assay: Z'-LYTE Detection Kinase Assay, in vitro enzyme activity test. It counts as biochemical. As to conditions: 0.6 nM FGFR1, 10 μm ATP, 23° C., 60 minutes. On the procedure:
The enzyme activity was detected by Z′-LYTE™ Detection Kinase Assay, and the IC50 value of the compound was used as an indicator to evaluate the inhibitory effect of the compound against FGFR1.
FGFR1 (Invitrogen #PV4105)
Reaction buffer solution: 50 mM Hepes (pH 7.5), 10 mM MgCl2, 1 mM EGTA, 0.01% Brij-35, 1 mM DTT, 2 mM MnCl2;
0.6 nM FGFR1, 2 μm Tyr^4 peptide and 10 μm ATP in reaction buffer solution (50 mM Hepes, pH 7.5, 10 mM MgCl2, 0.01% BRU-35, 1 mM EGTA, 4 mM MnCl2, 2 mM DTT).
a. Diluting the compound with DMSO to 10 mM, 3-fold dilution, 11 gradients, two duplicate wells;
b. Transferring compound diluted with a ratio of 1:25 to the middle plate at Bravo Automatic Liquid Station. Then transferring 2.5 uL to the reaction plate to ensure the final DMSO concentration to be 1%;
c. Transferring 5 μL enzyme/substrate buffer to each well;
d. Adding ATP solution to each well sequentially with Multidrop liquid workstation;
e. Centrifuging at 1000 rpm for 1 minute;
f. Placing the reaction plate in a 23° C. incubator, and allowing to react for 60 minutes.
a. Preparing a mixture of Development regent B and Development Buffer with a ratio of 1:128;
b. Adding 5 uL to each well and centrifuging at 1000 rpm for 1 minute;
c. Placing the reaction plate into an incubator (23° C.) for 90 minutes after centrifugation, taking it out, and reading it in the Envision (Perkin Elmer) plate reader […]

T1 sequence (P11362 22-822): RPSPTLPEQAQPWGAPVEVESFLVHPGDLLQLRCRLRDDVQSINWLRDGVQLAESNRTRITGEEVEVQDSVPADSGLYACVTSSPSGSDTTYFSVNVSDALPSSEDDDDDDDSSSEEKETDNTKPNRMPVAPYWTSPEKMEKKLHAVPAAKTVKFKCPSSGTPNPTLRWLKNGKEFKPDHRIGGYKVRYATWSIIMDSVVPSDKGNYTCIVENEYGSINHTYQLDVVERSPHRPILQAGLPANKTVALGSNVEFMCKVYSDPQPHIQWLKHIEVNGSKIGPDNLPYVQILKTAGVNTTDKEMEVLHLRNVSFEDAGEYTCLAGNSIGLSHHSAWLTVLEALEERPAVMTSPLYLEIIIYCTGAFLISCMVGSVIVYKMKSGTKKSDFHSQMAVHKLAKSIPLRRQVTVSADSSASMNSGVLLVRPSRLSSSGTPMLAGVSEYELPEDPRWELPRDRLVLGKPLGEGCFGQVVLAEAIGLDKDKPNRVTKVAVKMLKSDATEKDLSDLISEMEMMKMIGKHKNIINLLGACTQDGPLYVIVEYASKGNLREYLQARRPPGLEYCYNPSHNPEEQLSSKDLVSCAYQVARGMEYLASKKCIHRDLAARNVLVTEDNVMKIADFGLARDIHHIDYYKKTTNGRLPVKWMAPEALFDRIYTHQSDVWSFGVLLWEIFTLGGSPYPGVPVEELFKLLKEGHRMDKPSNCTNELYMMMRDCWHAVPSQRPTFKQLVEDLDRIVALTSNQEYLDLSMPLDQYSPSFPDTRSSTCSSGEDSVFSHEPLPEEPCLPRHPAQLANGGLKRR

For `C[C@@H](Oc1ccc2[nH]nc(/C=C(\F)c3ccc(CNC4CCOCC4)nc3)c2c1)c1c(Cl)cncc1Cl` [Embodiment 1], in assay [1], the “TGI % (last administration)” value is 85%. Also, the IC50 (as a rule, the concentration that gives 50% inhibition) on FGFR1 is at most 10 nM.
